Measurements taken from ChEMBL document CHEMBL4616581, “Current scenario of artemisinin and its analogues for antimalarial activity” (Eur J Med Chem, 2019).
pIC50: −log10 of the molar value. In brackets after ≈: the same amount, converted by molar mass.

Assays:
Type in all cases: functional, organism-based
Plasmodium falciparum [1] = test: Antimalarial activity against Plasmodium falciparum W2
Plasmodium falciparum [2] = test: Antimalarial activity against Plasmodium falciparum D6
Plasmodium falciparum [3] = test: Antimalarial activity against Plasmodium falciparum NF54 after 48 hrs by spectrophotometric analysis; settings: NF54, 48 h
Plasmodium falciparum [4] = test: Antimalarial activity against Plasmodium falciparum K1
Plasmodium falciparum [5] = test: Antimalarial activity against Plasmodium falciparum HB3
Plasmodium falciparum [6] = test: Antimalarial activity against Plasmodium falciparum W2 after 24 hrs by in presence of [3H]hypoxanthine
Plasmodium falciparum [7] = test: Antimalarial activity against Plasmodium falciparum D6 after 24 hrs by in presence of [3H]hypoxanthine

With `C[C@H]1[C@@H](CCO)O[C@@H]2O[C@]3(C)CC[C@H]4[C@H](C)CC[C@@H]1[C@@]24OO3` the IC50 (Plasmodium falciparum [1]) was 0.18 ng/mL and the IC50 (Plasmodium falciparum [2]) was 0.34 ng/mL (≈ 1.09 nM).

`CCC[C@H]1O[C@@H]2O[C@]3(C)CC[C@H]4[C@H](C)CC[C@@H]([C@H]1C)[C@@]24OO3` gave an IC50 (Plasmodium falciparum [1]) of 0.16 ng/mL and an IC50 (Plasmodium falciparum [2]) of 0.41 ng/mL (≈ 1.32 nM).

In the case of `C[C@@H]1CC[C@@H]2[C@]34OO[C@@](C)(CC[C@@H]13)O[C@H]4OC(O/C=C/c1ccccc1)[C@]2(C)O` (stereo not given in full), the pIC50 (Plasmodium falciparum [3]) was 6.98.

Molecule `C[C@H]1[C@@H](OCc2ccc(CN3CCCCC3)cc2)O[C@@H]2O[C@]3(C)CC[C@H]4[C@H](C)CC[C@@H]1[C@@]24OO3` has a pIC50 (Plasmodium falciparum [4]) of 8.01 and a pIC50 (Plasmodium falciparum [5]) of 7.91.

`C[C@@H]1CC[C@@H]2[C@]34OO[C@@](C)(CC[C@@H]13)O[C@H]4OC(OCC1CC1)[C@]2(C)O` (stereo not given in full) gave a pIC50 (Plasmodium falciparum [3]) of 6.80.

`C[C@H]1[C@@H](O[C@@H](C)CC(=O)O)O[C@@H]2O[C@]3(C)CC[C@H]4[C@H](C)CC[C@@H]1[C@@]24OO3` gave an IC50 (Plasmodium falciparum [6]) of 7.43 ng/mL and an IC50 (Plasmodium falciparum [7]) of 15 ng/mL.

`C[C@H]1[C@@H](OCc2ccc(CO)cc2)O[C@@H]2O[C@]3(C)CC[C@H]4[C@H](C)CC[C@@H]1[C@@]24OO3` gave a pIC50 (Plasmodium falciparum [4]) of 8.36 and a pIC50 (Plasmodium falciparum [5]) of 8.38.

`COC(=O)CC[C@@H](OC1O[C@@H]2O[C@]3(C)CC[C@H]4[C@H](C)CC[C@@H]([C@H]1C)[C@@]24OO3)c1ccc(F)cc1` (stereo not given in full) showed an IC50 (Plasmodium falciparum [1]) of 0.398 ng/mL and an IC50 (Plasmodium falciparum [2]) of 0.43 ng/mL (≈ 0.9 nM).

`COC(=O)[C@@H](C)CO[C@H]1O[C@@H]2O[C@]3(C)CC[C@H]4[C@H](C)CC[C@@H]([C@H]1C)[C@@]24OO3` gave an IC50 (Plasmodium falciparum [6]) of 0.015 ng/mL and an IC50 (Plasmodium falciparum [7]) of 0.36 ng/mL.

Molecule `COC(=O)C[C@H](C)O[C@H]1O[C@@H]2O[C@]3(C)CC[C@H]4[C@H](C)CC[C@@H]([C@H]1C)[C@@]24OO3` has an IC50 (Plasmodium falciparum [6]) of 0.48 ng/mL and an IC50 (Plasmodium falciparum [7]) of 1.19 ng/mL.

Molecule `C[C@@H]1CC[C@H]2[C@](C)(Br)[C@@H](Nc3ccccc3)O[C@@H]3O[C@]4(C)CC[C@@H]1[C@]32OO4` has an IC50 (Plasmodium falciparum [1]) of 0.63 ng/mL and an IC50 (Plasmodium falciparum [2]) of 3.42 ng/mL (≈ 7.8 nM).

For `CNCCO[C@H]1O[C@@H]2O[C@]3(C)CC[C@H]4[C@H](C)CC[C@@H]([C@H]1C)[C@@]24OO3`, the pIC50 (Plasmodium falciparum [4]) was 7.62 and the pIC50 (Plasmodium falciparum [5]) was 7.57.

`C[C@@H]1CC[C@H]2[C@@H](C)C(CCCO)O[C@@H]3O[C@]4(C)CC[C@@H]1[C@]32OO4` (stereo not given in full) was tested, and the IC50 (Plasmodium falciparum [1]) was 0.23 ng/mL and the IC50 (Plasmodium falciparum [2]) was 0.23 ng/mL (≈ 0.705 nM).

`C[C@H]1[C@@H](OCc2ccc(CN)cc2)O[C@@H]2O[C@]3(C)CC[C@H]4[C@H](C)CC[C@@H]1[C@@]24OO3` showed a pIC50 (Plasmodium falciparum [4]) of 8.85 and a pIC50 (Plasmodium falciparum [5]) of 8.51.

In the case of `C[C@@H]1CC[C@H]2[C@](C)(Br)[C@@H](Nc3ncccn3)O[C@@H]3O[C@]4(C)CC[C@@H]1[C@]32OO4`, the IC50 (Plasmodium falciparum [1]) was 5.56 ng/mL and the IC50 (Plasmodium falciparum [2]) was 26 ng/mL (≈ 59 nM).

`C[C@H]1[C@@H](OCc2ccc(CN3CCOCC3)cc2)O[C@@H]2O[C@]3(C)CC[C@H]4[C@H](C)CC[C@@H]1[C@@]24OO3` was tested, and the pIC50 (Plasmodium falciparum [4]) was 7.46 and the pIC50 (Plasmodium falciparum [5]) was 7.30.

With `C[C@H]1[C@@H](OC2O[C@H](CO)[C@H](O)[C@H](O)[C@H]2O)O[C@@H]2O[C@]3(C)CC[C@H]4[C@H](C)CC[C@@H]1[C@@]24OO3` (stereo not given in full) the IC50 (Plasmodium falciparum [6]) was 35.6 ng/mL and the IC50 (Plasmodium falciparum [7]) was 13.1 ng/mL.

Work on `COC(=O)CC[C@H](OC1O[C@@H]2O[C@]3(C)CC[C@H]4[C@H](C)CC[C@@H]([C@H]1C)[C@@]24OO3)c1ccc(F)cc1` (stereo not given in full) yielded an IC50 (Plasmodium falciparum [1]) of 0.488 ng/mL and an IC50 (Plasmodium falciparum [2]) of 0.616 ng/mL (≈ 1.29 nM).

`C[C@H]1[C@@H](OCCN2CCCC2)O[C@@H]2O[C@]3(C)CC[C@H]4[C@H](C)CC[C@@H]1[C@@]24OO3` showed a pIC50 (Plasmodium falciparum [4]) of 7.64 and a pIC50 (Plasmodium falciparum [5]) of 7.64.

`C[C@H]1[C@@H](OC[C@@H](C)C(=O)O)O[C@@H]2O[C@]3(C)CC[C@H]4[C@H](C)CC[C@@H]1[C@@]24OO3` gave an IC50 (Plasmodium falciparum [6]) of 5.34 ng/mL and an IC50 (Plasmodium falciparum [7]) of 22.2 ng/mL.

`C[C@@H]1CC[C@H]2[C@@H](C)C(OC(=O)c3cccc([N+](=O)[O-])c3)O[C@@H]3O[C@]4(C)CC[C@@H]1[C@]32OO4` (stereo not given in full) showed a pIC50 (Plasmodium falciparum [3]) of 7.98.

With `COC(=O)CC[C@H](OC1O[C@@H]2O[C@]3(C)CC[C@H]4[C@H](C)CC[C@@H]([C@H]1C)[C@@]24OO3)c1ccc(Cl)cc1` (stereo not given in full) the IC50 (Plasmodium falciparum [1]) was 0.794 ng/mL and the IC50 (Plasmodium falciparum [2]) was 0.903 ng/mL (≈ 1.82 nM).

In the case of `C[C@H]1[C@@H](OC2O[C@H](CO)[C@@H](O)[C@H](O)[C@H]2O)O[C@@H]2O[C@]3(C)CC[C@H]4[C@H](C)CC[C@@H]1[C@@]24OO3` (stereo not given in full), the IC50 (Plasmodium falciparum [6]) was 34.1 ng/mL and the IC50 (Plasmodium falciparum [7]) was 122 ng/mL.

`COC(=O)CC[C@@H](OC1O[C@@H]2O[C@]3(C)CC[C@H]4[C@H](C)CC[C@@H]([C@H]1C)[C@@]24OO3)c1ccc(Cl)cc1` (stereo not given in full) was tested, and the IC50 (Plasmodium falciparum [1]) was 0.629 ng/mL and the IC50 (Plasmodium falciparum [2]) was 0.727 ng/mL (≈ 1.47 nM).

In the case of `C[C@H]1[C@@H](O[C@H](C)CC(=O)O)O[C@@H]2O[C@]3(C)CC[C@H]4[C@H](C)CC[C@@H]1[C@@]24OO3`, the IC50 (Plasmodium falciparum [6]) was 4.42 ng/mL and the IC50 (Plasmodium falciparum [7]) was 36.5 ng/mL.

`COc1ccc(OC)c(COC2O[C@@H]3O[C@]4(C)CC[C@H]5[C@H](C)CC[C@H]([C@@]35OO4)[C@@]2(C)O)c1` (stereo not given in full) gave a pIC50 (Plasmodium falciparum [3]) of 6.90.

Work on `COC(=O)CCC(OC1O[C@@H]2O[C@]3(C)CC[C@H]4[C@H](C)CC[C@@H]([C@H]1C)[C@@]24OO3)c1ccc(Cl)cc1` (stereo not given in full) yielded an IC50 (Plasmodium falciparum [1]) of 0.656 ng/mL and an IC50 (Plasmodium falciparum [2]) of 0.391 ng/mL (≈ 0.79 nM).

`C[C@H]1[C@@H](C(F)(F)F)O[C@@H]2O[C@]3(C)CC[C@H]4[C@H](C)CC[C@@H]1[C@@]24OO3` gave a pIC50 (Plasmodium falciparum [1]) of 8.21.

`CC[C@H]1O[C@@H]2O[C@]3(C)CC[C@H]4[C@H](C)CC[C@@H]([C@H]1C)[C@@]24OO3` was tested, and the IC50 (Plasmodium falciparum [1]) was 0.29 ng/mL and the IC50 (Plasmodium falciparum [2]) was 1.09 ng/mL (≈ 3.68 nM).

Work on `C[C@@H]1CC[C@H]2[C@@H](C)C(OC(=O)c3ccc([N+](=O)[O-])cc3)O[C@@H]3O[C@]4(C)CC[C@@H]1[C@]32OO4` (stereo not given in full) yielded a pIC50 (Plasmodium falciparum [3]) of 8.07.

Work on `C[C@H]1[C@@H](OC[C@H](C)C(=O)O)O[C@@H]2O[C@]3(C)CC[C@H]4[C@H](C)CC[C@@H]1[C@@]24OO3` yielded an IC50 (Plasmodium falciparum [6]) of 8.33 ng/mL and an IC50 (Plasmodium falciparum [7]) of 28.7 ng/mL.

For `C[C@@H]1CC[C@@H]2[C@]34OO[C@@](C)(CC[C@@H]13)O[C@H]4OC(OCc1ccc3c(c1)OCO3)[C@]2(C)O` (stereo not given in full), the pIC50 (Plasmodium falciparum [3]) was 6.96.

`C[C@@H]1CC[C@H]2[C@](C)(Br)[C@@H](Nc3nccs3)O[C@@H]3O[C@]4(C)CC[C@@H]1[C@]32OO4` was tested, and the IC50 (Plasmodium falciparum [1]) was 0.21 ng/mL and the IC50 (Plasmodium falciparum [2]) was 0.91 ng/mL (≈ 2.04 nM).

With `C[C@@H]1CC[C@H]2[C@](C)(Br)[C@@H](Nc3cccc(F)c3)O[C@@H]3O[C@]4(C)CC[C@@H]1[C@]32OO4` the IC50 (Plasmodium falciparum [1]) was < 0.16 ng/mL and the IC50 (Plasmodium falciparum [2]) was 0.16 ng/mL (≈ 0.351 nM).

With `C[C@@H]1CC[C@H]2[C@@H](C)C(OC(=O)c3cccc4c3OCO4)O[C@@H]3O[C@]4(C)CC[C@@H]1[C@]32OO4` (stereo not given in full) the pIC50 (Plasmodium falciparum [3]) was 8.09.

Molecule `COC(=O)[C@H](C)CO[C@H]1O[C@@H]2O[C@]3(C)CC[C@H]4[C@H](C)CC[C@@H]([C@H]1C)[C@@]24OO3` has an IC50 (Plasmodium falciparum [6]) of 0.057 ng/mL and an IC50 (Plasmodium falciparum [7]) of 2.15 ng/mL.

Work on `COC(=O)C[C@@H](C)O[C@H]1O[C@@H]2O[C@]3(C)CC[C@H]4[C@H](C)CC[C@@H]([C@H]1C)[C@@]24OO3` yielded an IC50 (Plasmodium falciparum [6]) of 0.071 ng/mL and an IC50 (Plasmodium falciparum [7]) of 0.44 ng/mL.

In the case of `C[C@@H]1CC[C@H]2[C@](C)(Br)[C@@H](Nc3ccccn3)O[C@@H]3O[C@]4(C)CC[C@@H]1[C@]32OO4`, the IC50 (Plasmodium falciparum [1]) was 1.19 ng/mL and the IC50 (Plasmodium falciparum [2]) was 7.72 ng/mL (≈ 17.6 nM).

`C[C@H]1[C@@H](O[C@@H]2O[C@H](CO)[C@@H](O[C@@H]3O[C@H](CO)[C@@H](O)[C@H](O)[C@H]3O)[C@H](O)[C@H]2O)O[C@@H]2O[C@]3(C)CC[C@H]4[C@H](C)CC[C@@H]1[C@@]24OO3` showed an IC50 (Plasmodium falciparum [6]) of 171 ng/mL and an IC50 (Plasmodium falciparum [7]) of 710 ng/mL.
